Legend:
[1] = system: outer hair cells in organotypic cultures of the neonatal organ of Corti; assay: Hair cell counts in neomycin-exposed cochlear explant cultures; format: cell-based, rat
Protocol: (§1) The basal half of cochleas containing the basal and middle turns were dissected from postnatal day 2 Wistar rats. The cultures were maintained on Nuclepore filters (pore size […]; Pleasanton, Calif.) placed on a metal grid in F12 medium (Life Technologies, Gaithersburg, Md.) containing 15% fetal bovine serum (Life Technologies). After a 2-hour-long stabilization period, explants were exposed to 100 mM neomycin sulfate (Sigma, St Louis, Mo.) for 48 hr.
(§2) Explants were fixed with 4% paraformaldehyde/0.5% glutaraldehyde in phosphate buffered saline (PBS), pH 7.4, for 30 min and dissected for surface preparations. They were stained with a 1:100 dilution of rhodamine-phalloidin in PBS containing 0.25% Triton X-l 00 overnight at 4° C. and mounted in Vectashield (Vector). Outer hair cell (OHC) numbers were quantified with a Zeiss Axiovert 100/135 epifluorescent microscope (Germany) connected to a Bio-Rad MRC-1024 confocal laser scanning system (Richmond, Calif.). Hair cells were characterized as missing if no stereocilia and cuticular plate were observed. Numbers of OHCs were evaluated using a 40×objective lens and an ocular grid. Nine to 1 fields filled by 30 OHCs in each of the 3 rows (when all of them were present) were studied from each explant. Basal and middle coils were analyzed separately. Three separate experiments, each including 4 explants of both conditions (neomycin and neomycin plus Formula II) were analyzed.
as §1, with “μM” for “mM”, “hr. The compounds of Formula I and the compound of Formula I were added at 500 nM at the time of initiation of the cultures and every 12 hr thereafter. Neomycin plus vehicle was used as a control.” for “hr.”
as §2, with “X-100” for “X-l 00”, “40x objective” for “40×objective”, “Several” for “Nine to 1”, “separately.” for “separately. Three separate experiments, each including 4 explants of both conditions (neomycin and neomycin plus Formula II) were analyzed.”

[2] = system: cochlear ganglion neurons; conditions: Ylikoski et al., 1998; cited from earlier work
[3] = 100 mM neomycin (so in the source) alone for 48 hr, n=12

Q: With O=C1NC(=O)c2c1c1c(c3[nH]c4ccccc4c23)Cc2ccccc2-1 [Example 8, 6H,12H,13H-Indeno[2,3-a]pyrrolo[3,4-c]carbazole-5,7(5H, 7H)-dione] as the molecule, how does the viability at 0.5 µM ([1]; Rattus norvegicus, 48 h, compound 500 nM plus 100 μM neomycin 48 hr, NEO = neomycin plus vehicle, each line a separate count, read-out: % preserved) read?
A: 21%

Q: For “NGF: nerve growth factor, negative control in cochlear neuron cultures”, which “survival of dissociated cochlear neurons of the perinatal rat” value [2] is on record?
A: does not have any effect or its effect is very weak

Q: For neomycin sulfate [reference compound], which “OHCs in the basal turn lost” value [1, 3] is on record?
A: Approximately 90%

Q: And the “OHCs in the middle turn lost” value [1, 3]?
A: ~25%

B1: NT-3: neurotrophic factor, positive comparator in cochlear neuron cultures (protein, UniProt P20783 139-257, looked up)
Neurotrophin-3: YAEHKSHRGEYSVCDSESLWVTDKSSAIDIRGHQVTVLGEIKTGNSPVKQYFYETRCKEARPVKNGCRGIDDKHWNSQCKTSQTYVRALTSENNKLVGWRWIRIDTSCVCALSRKIGRT
Q: With B1 as the molecule, how does the “survival of dissociated cochlear neurons of the perinatal rat” value [2] read?
A: most potent neurotrophic factor promoting survival
